Legend:
PTPN2 (B16F10.4 cells) = biological target: T1, PTPN2 (B16F10.4 cells) (Mus musculus, UniProt Q06180); test: HiBiT Degradation B16F10.4 PTPN2; format: cell-based; settings: 24.0 hours
T1 construct: HiBiT; host or cells: B16F10.4
T1 sequence (Q06180 1-406): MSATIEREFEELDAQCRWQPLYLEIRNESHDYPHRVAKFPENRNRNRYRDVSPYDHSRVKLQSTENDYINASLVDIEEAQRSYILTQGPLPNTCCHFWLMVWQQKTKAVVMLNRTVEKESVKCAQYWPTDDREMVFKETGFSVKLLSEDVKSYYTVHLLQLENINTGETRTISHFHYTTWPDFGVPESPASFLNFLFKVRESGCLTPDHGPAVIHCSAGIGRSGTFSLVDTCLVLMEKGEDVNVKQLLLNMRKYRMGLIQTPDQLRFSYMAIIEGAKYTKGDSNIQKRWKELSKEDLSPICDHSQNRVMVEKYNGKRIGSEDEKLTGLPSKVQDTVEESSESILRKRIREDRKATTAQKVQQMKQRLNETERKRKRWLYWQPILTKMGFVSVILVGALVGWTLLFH

[1] = biological target: T2, PTPN2 (HiBIT-PTPN2 in 293T.109 cells) (Homo sapiens, UniProt P17706); test: HiBiT Degradation 293T.109 PTPN2 (Nano-Glo HiBiT Lytic Assay); format: cell-based; settings: 24.0 hours
T2 construct: expressed in transfected cells; host or cells: 293T.109 (293T WT from ATCC)
T2 sequence (P17706 1-415): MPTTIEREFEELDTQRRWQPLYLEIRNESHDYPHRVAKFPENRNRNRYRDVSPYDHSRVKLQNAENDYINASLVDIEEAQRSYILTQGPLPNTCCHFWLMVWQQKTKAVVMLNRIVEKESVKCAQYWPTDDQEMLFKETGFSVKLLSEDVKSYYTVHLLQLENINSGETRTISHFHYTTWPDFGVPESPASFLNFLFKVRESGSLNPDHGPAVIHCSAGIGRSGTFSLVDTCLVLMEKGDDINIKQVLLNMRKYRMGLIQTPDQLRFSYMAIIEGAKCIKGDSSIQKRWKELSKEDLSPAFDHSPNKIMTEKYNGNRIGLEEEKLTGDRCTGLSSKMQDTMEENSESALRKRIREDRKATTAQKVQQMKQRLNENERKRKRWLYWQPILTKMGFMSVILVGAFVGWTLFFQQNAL
Excerpt: Dulbecco's modified Eagle medium (DMEM) without phenol red and fetal bovine serum (FBS) were purchased from Gibco (Grand Island, NY, USA). Nano-Glo® HiBIT Lytic Assay System was purchased from Promega (Madison, WI, USA). 293T.109 (HiBIT-PTPN2) cell line was generated by ectopically expressing PTPN2 with N-terminal HiBIT fusion tag in 293T WT cell line purchased from ATCC (Manassas, VA, USA). Cell culture flasks and 384-well microplates were acquired from VWR (Radnor, PA, USA).
PTPN2 degradation was determined based on quantification of luminescent signal using Nano-Glo® HiBIT Lytic Assay kit. Test compounds were added to the 384-well plate from a top concentration of 10 μM with 11 points, half log titration in duplicates. 293T.109 cells were added into 384-well plates at a cell density of 5000 cells per well. The plates were kept at 37° C. with 5% CO2 for 24 hours. The cells treated in the absence of the test compound were the negative control and the cells without Nano-Glo® HiBIT Lytic reagent were the positive control. After 24-hour incubation, Nano-Glo® HiBiT Lytic Assay reagents were added to the cells. Luminescence was acquired on EnVision™ Multilabel Reader (PerkinElmer, Santa Clara, CA, USA).

Row | Compound | DC50 (PTPN2 (B16F10.4 cells)) [nM] | DC50 [1] [nM]
1 | Cn1c(=O)n(C2CCC(=O)NC2=O)c2ccc(N3CCN(C(=O)Nc4cccc(CS(=O)(=O)N5CC[C@H](Nc6cccc(-c7sc(C(=O)O)c(OCC(=O)O)c7Cl)c6)CC5(C)C)c4)CC3)cc21 (stereo partly drawn) [Example 80, 3-(Carboxymethoxy)-4-chloro-5-[3-[[(4S)-1-[[3-[[4-[1-(2,6-dioxo-3-piperidyl)-3-methyl-2-oxo-benzimidazol-5-yl]piperazine-1-carbonyl]amino]phenyl]methylsulfonyl]-2,2-dimethyl-4-piperidyl]amino]phenyl]thiophene-2-carboxylic acid] | 50 to 200 | 50 to 200
2 | CC1(C)C[C@H](Nc2cccc(-c3sc(C(=O)O)c(OCC(=O)O)c3Cl)c2F)CCN1S(=O)(=O)Cc1ccc(F)c(NC(=O)C2CN(C(=O)CNc3cccc4c3CN(C3CCC(=O)NC3=O)C4=O)C2)c1 (stereo partly shown) [Example 149] | ≥ 1000 | 50 to 200
3 | Cn1c(=O)n(C2CCC(=O)NC2=O)c2ccc(N3CCC(N4CCN(c5cccc(CS(=O)(=O)N6CCC(Nc7cccc(-c8sc(C(=O)O)c(OCC(=O)O)c8Cl)c7)CC6)c5)C4=O)CC3)cc21 (stereo not shown) [Example 142, 3-(carboxymethoxy)-4-chloro-5-(3-((1-((3-(3-(1-(1-(2,6-dioxopiperidin-3-yl)-3-methyl-2-oxo-2,3-dihydro-1H-benzo[d]imidazol-5-yl)piperidin-4-yl)-2-oxoimidazolidin-1-yl)benzyl)sulfonyl)piperidin-4-yl)amino)phenyl)thiophene-2-carboxylic acid] | 50 to 200 | < 50
4 | CC1(C)C[C@@H](Nc2cccc(-c3sc(C(=O)O)c(OCC(=O)O)c3Cl)c2)CCN1S(=O)(=O)Cc1cccc(NC(=O)CCOCCn2cc(CNc3cccc4c3C(=O)N(C3CCC(=O)NC3=O)C4=O)nn2)c1 (stereo partly drawn) [Example 15, 3-(carboxymethoxy)-4-chloro-5-(3-(((4S)-1-((3-(3-(2-(4-(((2-(2,6-dioxopiperidin-3-yl)-1,3-dioxoisoindolin-4-yl)amino)methyl)-1H-1,2,3-triazol-1-yl)ethoxy)propanamido)benzyl)sulfonyl)-2,2-dimethylpiperidin-4-yl)amino)phenyl)thiophene-2-carboxylic acid] | 200 to 1000 | 200 to 1000
5 | CC1(C)C[C@H](Nc2cccc(-c3sc(C(=O)O)c(OCC(=O)O)c3Cl)c2)CCN1S(=O)(=O)Cc1cccc(NC(=O)N2CCC(c3ccc4c5c(cccc35)C(=O)N4C3CCC(=O)NC3=O)CC2)c1F (stereo partly drawn) [Example 129, 3-(carboxymethoxy)-4-chloro-5-(3-(((4R)-1-((3-(4-(1-(2,6-dioxopiperidin-3-yl)-2-oxo-1,2-dihydrobenzo[cd]indol-6-yl)piperidine-1-carboxamido)-2-fluorobenzyl)sulfonyl)-2,2-dimethylpiperidin-4-yl)amino)phenyl)thiophene-2-carboxylic acid] | < 50 | 200 to 1000
6 | CN(c1cccc(-c2sc(C(=O)O)c(OCC(=O)O)c2Cl)c1)C1CCN(S(=O)(=O)Cc2cccc(NC(=O)CCn3cc(CNc4cccc5c4C(=O)N(C4CCC(=O)NC4=O)C5=O)nn3)c2)CC1 (stereo not shown) [Example 17, 3-(carboxymethoxy)-4-chloro-5-(3-((1-((3-(3-(4-(((2-(2,6-dioxopiperidin-3-yl)-1,3-dioxoisoindolin-4-yl)amino)methyl)-1H-1,2,3-triazol-1-yl)propanamido)benzyl)sulfonyl)piperidin-4-yl)(methyl)amino)phenyl)thiophene-2-carboxylic acid] | ≥ 1000 | ≥ 1000
7 | CC1(C)C[C@@H](Nc2cccc(-c3sc(C(=O)O)c(OCC(=O)O)c3Cl)c2)CCN1S(=O)(=O)Cc1cccc(NC(=O)NCCC2CCN(c3ccc4c5c(cccc35)C(=O)N4C3CCC(=O)NC3=O)CC2)c1 (stereo partly drawn) [Example 219, 3-(carboxymethoxy)-4-chloro-5-(3-(((4S)-1-((3-(3-(2-(1-(1-(2,6-dioxopiperidin-3-yl)-2-oxo-1,2-dihydrobenzo[cd]indol-6-yl)piperidin-4-yl)ethyl)ureido)benzyl)sulfonyl)-2,2-dimethylpiperidin-4-yl)amino)phenyl)thiophene-2-carboxylic acid] | < 50 | 50 to 200

The remaining lines, values ahead:

Row | DC50 (PTPN2 (B16F10.4 cells)) [nM] | DC50 [1] [nM] | Compound
8 | 200 to 1000 | 50 to 200 | O=C(O)COc1c(C(=O)O)sc(-c2cccc(NC3CCN(S(=O)(=O)Cc4ccc(F)c(NC(=O)C5CN(C(=O)COc6cccc7c6CN(C6CCC(=O)NC6=O)C7=O)C5)c4)CC3)c2)c1Cl (stereo not shown) [Example 93]
9 | 50 to 200 | 50 to 200 | C[C@H]1CN(C(=O)Nc2cccc(CS(=O)(=O)N3CC[C@H](Nc4cccc(-c5sc(C(=O)O)c(OCC(=O)O)c5Cl)c4)CC3(C)C)c2)CCN1c1ccc2c(c1)n(C)c(=O)n2C1CCC(=O)NC1=O (stereo partly shown) [Example 210]
10 | 50 to 200 | < 50 | Cn1c(=O)n(C2CCC(=O)NC2=O)c2ccc(C3CCN(C(=O)Nc4cccc(CS(=O)(=O)N5CC[C@H](Nc6cccc(-c7sc(C(=O)O)c(OCC(=O)O)c7Cl)c6)CC56CC6)c4)CC3)cc21 (stereo partly drawn) [Example 190, 3-(carboxymethoxy)-4-chloro-5-(3-(((7S)-4-((3-(4-(1-(2,6-dioxopiperidin-3-yl)-3-methyl-2-oxo-2,3-dihydro-1H-benzo[d]imidazol-5-yl)piperidine-1-carboxamido)benzyl)sulfonyl)-4-azaspiro[2.5]octan-7-yl)amino)phenyl)thiophene-2-carboxylic acid]
11 | 50 to 200 | 50 to 200 | Cn1c(=O)n(C2CCC(=O)NC2=O)c2ccc3c(c21)CCCN3C1CCN(C(=O)Nc2cccc(CS(=O)(=O)N3CC[C@H](Nc4cccc(-c5sc(C(=O)O)c(OCC(=O)O)c5Cl)c4)CC3(C)C)c2)CC1 (stereo partly drawn) [Example 222, 3-(carboxymethoxy)-4-chloro-5-[3-[[(4S)-1-[[3-[[4-[3-(2,6-dioxo-3-piperidyl)-1-methyl-2-oxo-8,9-dihydro-7H-imidazo[4,5-f]quinolin-6-yl]piperidine-1-carbonyl]amino]phenyl]methylsulfonyl]-2,2-dimethyl-4-piperidyl]amino]phenyl]thiophene-2-carboxylic acid]
12 | 200 to 1000 | < 50 | CC1(C)C[C@@H](Nc2cccc(-c3sc(C(=O)O)c(OCC(=O)O)c3Cl)c2)CCN1S(=O)(=O)Cc1cccc(NC(=O)C2CCN(C(=O)CNc3cccc4c3CN(C3CCC(=O)NC3=O)C4=O)CC2)c1 (stereo partly drawn) [Example 48, 3-(carboxymethoxy)-4-chloro-5-(3-(((4S)-1-((3-(1-((2-(2,6-dioxopiperidin-3-yl)-1-oxoisoindolin-4-yl)glycyl)piperidine-4-carboxamido)benzyl)sulfonyl)-2,2-dimethylpiperidin-4-yl)amino)phenyl)thiophene-2-carboxylic acid]
13 | 50 to 200 | < 50 | CC1(C)C[C@@H](Nc2cccc(-c3sc(C(=O)O)c(OCC(=O)O)c3Cl)c2)CCN1S(=O)(=O)Cc1cccc(NC(=O)CN2CCC(c3ccc4c5c(cccc35)C(=O)N4C3CCC(=O)NC3=O)CC2)c1 (stereo partly drawn) [Example 83, 3-(carboxymethoxy)-4-chloro-5-[3-[[(4S)-1-[[3-[[2-[4-[1-(2,6-dioxo-3-piperidyl)-2-oxo-benzo[cd]indol-6-yl]-1-piperidyl]acetyl]amino]phenyl]methylsulfonyl]-2,2-dimethyl-4-piperidyl]amino]phenyl]thiophene-2-carboxylic acid]
14 | 200 to 1000 | 200 to 1000 | CC1(C)C[C@H](Nc2cccc(-c3sc(C(=O)O)c(OCC(=O)O)c3Cl)c2)CCN1S(=O)(=O)Cc1cccc(NC(=O)N2CCC(c3ccc4c(C5CCC(=O)NC5=O)cnn4c3)CC2)c1 (stereo partly drawn) [Example 193, 3-(carboxymethoxy)-4-chloro-5-(3-(((4R)-1-((3-(4-(3-(2,6-dioxopiperidin-3-yl)pyrazolo[1,5-a]pyridin-6-yl)piperidine-1-carboxamido)benzyl)sulfonyl)-2,2-dimethylpiperidin-4-yl)amino)phenyl)thiophene-2-carboxylic acid]
